Test [1] deals with MCF7. The test is described as follows: Cell proliferation detection using BrdU method (MCF7). The test is classed as cell-based. To be noted: Homo sapiens, 48 hours, fixed-ratio combination 640:3.2 nM series, concentration axis = compound of Formula (I), read-out: Cytological activity on MCF7 in vitro (IC50).
Method: Experimental method: Cell proliferation detection using BrdU method (BrdU cell proliferation test kit, PerkinElmer Company) • 1. Reagent and compound preparation • 1.1. Preparation of 1-fold washing solution:
A washing solution with a mother liquor concentration of 25 times was diluted into 1-fold washing solution with ultrapure water. • 1.2. Preparation of 1-fold detection antibody solution:
A BrdU-Eu detection antibody with a mother liquor concentration of 200 times was diluted into 1-fold detection antibody solution with a detection antibody diluent. • 1.3. 100-fold BrdU labeling solution:
A BrdU stock solution with a mother liquor concentration of 1000 times was diluted into 100-fold BrdU labeling solution with a culture medium corresponding to cells. • 1.4. […]
MCF7 medium: MEM+10% FBS+1% bispecific antibody+10 μg/mL human recombinant insulin • 2. […] Then resuspended with a corresponding culture medium, counted and adjustment-inoculated in a 96-well plate, the MCF7 cells were inoculated according to 8000 cells/well/100 μL, placed and cultured in a 37° C. cell incubator, and after the cells were adhered to a wall, it was replaced with a serum-free medium. • 2.2. […]
• 2.3. […] 200 μL of time-resolved immunofluorescence induction solution was added per well, and incubated at the room temperature for 15 minutes, and the fluorescence value (Flu value) was detected by a microplate reader. • 3.
Test [2] relates to MCF7 human xenograft model. The test is described as follows: Tumor growth inhibition in MCF7 human xenograft model. The format is in vivo, Balb/c female nude mouse. To be noted: Formula (I) 30 mg/kg orally once a day 21 days, fulvestrant 5 mg/mouse subcutaneously once a week 3 weeks. As for the experimental part: 1. Tumor Inoculating and Grouping
Estrogen was injected subcutaneously on one day before animal inoculation, twice a week, and 40 μg/20 μL for each time (estrogen specification: 4 mg/2 mL) until the experiment was ended. MCF7 cells resuspended by a serum-free medium were inoculated subcutaneously on the right rib of a Balb/c female nude mouse at 1.5×10^7+matrigel/0.2 mL (cell: matrigel=1:1). While the tumor growed to a volume mean value of 163 mm^3, it was grouped and administered. The group of the compound of Formula (I) was administered orally once a day at an dose of 30 mg/kg for 21 consecutive days; the group of the fulvestrant was administered subcutaneously once a week, 5 mg per animal, for 3 consecutive weeks; and while the compound of Formula (I) was used in combination with the fulvestrant, the same administration mode was used as while used alone.
2. Measurement and Experimental Indicator of Tumor
The tumor volume was measured twice a week with a vernier caliper, the long diameter and the short diameter of the tumor were measured, and its volume calculation formula is: volume=0.5×long diameter×short diameter^2. The relative tumor volume RTV and relative tumor volume increase ratio (T/C) were calculated according to measurement results. […]
(Xenograft models place foreign cells or tissue in a host animal.)

Consider 1 molecule from patent US20240075032A1, “A Pharmaceutical Composition for Treating Cancer” (XUANZHU BIOPHARMACEUTICAL CO., LTD., priority 2020, published 2024).

pIC50: −log10 of the molar value.

Usually pIC50 stands for the IC50 on a negative log10 scale, so that one unit is a factor of ten.

For the molecule `C[C@]12CC[C@@H]3c4ccc(O)cc4C[C@@H](CCCCCCCCC[S+]([O-])CCCC(F)(F)C(F)(F)F)[C@H]3[C@@H]1CC[C@@H]2O` (stereo partly drawn) [Fulvestrant, fulvestrant], the pIC50 in test [1] is 9.66. Moreover, the “TGI(%)” value in test [2] (combination same modes) was found to be 55.9%. Moreover, the “Tumor volume at the end of administration” value in test [2] (mean ± standard error, start about 163 mm^3, solvent control 468 ± 37) came out at 216 ± 44 mm^3.
